Counter-ions that a name gives are not always drawn.
tested on: Acinetobacter baumannii ATCC 17978; experiment: Antimicrobial susceptibility testing: 90% growth inhibitory concentration (IC90) determination; format: cell-based; conditions: 90% growth inhibitory concentration; Acinetobacter baumannii ATCC17978; Iso-Sensitest broth, OD 600 nm over 16h; read-out: ATCC17978 IC90
In short: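 Compounds serially twofold diluted (e.g. 50 to 0.097 μM final) in Iso-Sensitest broth, inoculated at ~5×10^(5) CFU/ml, incubated at 35±2° C. OD600 read every 20 minutes over 16h. IC90 taken as concentration inhibiting 90% of growth during logarithmic phase.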

| SMILES | IC90 [µM] |
| --- | --- |
| CCc1cc(Nc2nccn3c(-c4ccc(OC)c(F)c4F)cnc23)ccc1C(=O)NCCCN [Example 118, N-(3-aminopropyl)-4-((3-(2,3-difluoro-4-methoxyphenyl)imidazo[1,2-a]pyrazin-8-yl)amino)-2-ethylbenzamide dihydrochloride] | 0.45 |

same assay, conditions: Acinetobacter baumannii, ATCC17978, 16 h, 90% growth inhibitory concentration; Acinetobacter baumannii ATCC17978; Iso-Sensitest broth, OD 600 nm over 16h; read-out: ATCC17978 IC90

| SMILES | IC90 [µM] |
| --- | --- |
| CN(CCC1CCNCC1)C(=O)c1ccc(Nc2nccn3c(-c4ccc(OCC#N)c(F)c4F)cnc23)cc1Cl [Example 78, 2-chloro-4-[[3-[4-(cyanomethoxy)-2,3-difluoro-phenyl]imidazo[1,2-a]pyrazin-8-yl]amino]-N-methyl-N-[2-(4-piperidyl)ethyl] benzamide; 2,2,2-trifluoroacetic acid] | 0.13 |
| COc1ccc(-c2cnc3c(Nc4ccc(C(=O)N(C)CCC5CCNCC5)c(C)c4)nccn23)cc1 [Example 182, 4-[[3-(4-methoxyphenyl)imidazo[1,2-a]pyrazin-8-yl]amino]-N,2-dimethyl-N-(2-piperidin-4-ylethyl)benzamide; hydrochlo-ride] | 0.18 |
| Cn1cc(CNC(=O)c2ccc(Nc3nccn4c(-c5ccc(OCC#N)c(F)c5F)cnc34)cc2Cl)ccc1=O [Example 87, 2-chloro-4-[[3-[4-(cyanomethoxy)-2,3-difluoro-phenyl]imidazo[1,2-a]pyrazin-8-yl]amino]-N-[(1-methyl-6-oxo-3-pyridyl)methyl] benzamide] | 0.08 |
| COc1ccc(-c2cnc3c(Nc4ccc(C(=O)N(C)Cc5ccncn5)c(C)c4)nccn23)cc1F [Example 39, 4-[[3-(3-fluoro-4-methoxy-phenyl)imidazo[1,2-a]pyrazin-8-yl]amino]-N,2-dimethyl-N-(pyrimidin-4-ylmethyl)benzamide] | 0.24 |
| C=Cc1cc(Nc2nccn3c(-c4ccc(OC(F)F)cc4)cnc23)ccc1C(=O)NC [Example 92, 4-((3-(4-(difluoromethoxy)phenyl)imidazo[1,2-a]pyrazin-8-yl)amino)-N-methyl-2-vinylbenzamide] | 0.61 |
| COc1ccc(-c2cnc3c(Nc4ccc(C(=O)NCC5CCNCC5)c(Cl)c4)nccn23)c(F)c1F [Example 58, 2-chloro-4-[[3-(2,3-difluoro-4-methoxy-phenyl)imidazo[1,2-a]pyrazin-8-yl]amino]-N-(4-piperidylmethyl) benzamide] | 0.17 |
| COc1ccc(-c2cnc3c(Nc4ccc(C(=O)N(C)CCn5ccnc5)c(C)c4)nccn23)cc1F [Example 105, 4-[[3-(3-fluoro-4-methoxy-phenyl)imidazo[1,2-a]pyrazin-8-yl]amino]-N-(2-imidazol-1-ylethyl)-N,2-dimethyl-benzamide] | 0.82 |
| CCc1cc(Nc2nccn3c(-c4ccc(OC(F)F)c(F)c4F)cnc23)ccc1C(=O)NC(C)(C)CCN [Example 100, N-(4-amino-2-methylbutan-2-yl)-4-((3-(4-(difluoromethoxy)-2,3-difluorophenyl)imidazo [1,2-a]pyrazin-8-yl)amino)-2-ethylbenzamide hydrochloride] | 0.35 |
| COc1ccc(-c2cnc3c(Nc4ccc(C(=O)N(C)CCN)c(C)c4)nccn23)cc1 [Example 32, N-(2-aminoethyl)-4-((3-(4-methoxyphenyl)imidazo [1,2-a]pyrazin-8-yl)amino)-N,2-dimethylbenzamide] | 1.7 |
| COc1ccc(-c2cnc3c(Nc4ccc(C(=O)N(CCN5CCNCC5)CC(F)F)c(C)c4)nccn23)cc1F [Example 175, N-(2,2-difluoroethyl)-4-[[3-(3-fluoro-4-methoxyphenyl)imidazo[1,2-a]pyrazin-8-yl]amino]-2-methyl-N-(2-piperazin-1-ylethyl)benzamide;hydrochlo-ride] | 2.3 |
| COc1ccc(-c2cnc3c(Nc4ccc(C(=O)N(C)CCN(C)C)cc4)nccn23)cc1Cl [Example 28, 4-((3-(3-chloro-4-methoxyphenyl)imidazo [1,2-a]pyrazin-8-yl)amino)-N-(2-(dimethylamino)ethyl)-N-methylbenzamide] | 3.6 |
| COc1ccc(-c2cnc3c(Nc4ccc(C(=O)NC(CO)CO)c(C)c4)nccn23)cc1 [Example 154] | 0.82 |

The next lines start with the values.

| IC90 [µM] | SMILES |
| --- | --- |
| 0.26 | Cc1cc(Nc2nccn3c(-c4ccc(Cl)cc4)cnc23)ccc1C(=O)NCCC1CCN(C)CC1 [Example 186, 4-[[3-(4-chlorophenyl)imidazo[1,2-a]pyrazin-8-yl]amino]-2-methyl-N-[2-(1-methylpiperidin-4-yl)ethyl]benzamide] |
| 0.084 | CCc1cc(Nc2nccn3c(-c4ccc(OC)c(F)c4F)cnc23)ccc1C(=O)NCc1cnc(N)s1 [Example 569, N-((2-aminothiazol-5-yl)methyl)-4-((3-(2,3-difluoro-4-methoxyphenyl)imidazo[1,2-a]pyrazin-8-yl)amino)-2-ethylbenzamide] |
| 0.8 | CCc1cc(Nc2nccn3c(-c4ccc(OC(F)F)c(F)c4F)cnc23)ccc1C(=O)NCC1(O)CCNC1 (stereo not shown) [Example 311, 4-[[3-[4-(difluoromethoxy)-2,3-difluorophenyl]imidazo[1,2-a]pyrazin-8-yl]amino]-2-ethyl-N-[(3-hydroxypyrrolidin-3-yl)methyl]benzamide;hydro-chloride] |
| 2.4 | Cc1cc(Nc2nccn3c(-c4ccc(OC(F)F)cc4)cnc23)ccc1C(=O)NCCN1CCOCC1=O [Example 247, 4-[[3-[4-(difluoromethoxy)phenyl]im-dazo[1,2-a]pyrazin-8-yl]amino]-2-methyl-N-[2-(3-oxomorpholin-4-yl)ethyl]benzamide] |
| 0.1 | CCc1cc(Nc2nccn3c(-c4ccc(OC)c(F)c4F)cnc23)ccc1C(=O)NCCCCCc1nnc2ccccn12 [Example 533, N-(5-([1,2,4]triazolo[4,3-a]pyridin-3-yl)pentyl)-4-((3-(2,3-difluoro-4-methoxyphenyl)imidazo[1,2-a]pyrazin-8-yl)amino)-2-ethylbenzamide] |
| 2.5 | COc1ccc(-c2cnc3c(Nc4ccc(C(=O)NCCCNC(=O)CC[C@H](N)C(=O)O)c(C)c4)nccn23)c(F)c1F [Example 355, (2S)-2-amino-5-[3-[[4-[[3-(2,3-difluoro-4-methoxyphenyl)imidazo[1,2-a]pyrazin-8-yl]amino]-2-methylbenzoyl]amino]propyl-amino]-5-oxopentanoic acid] |
| 0.94 | COc1ccc(-c2cnc3c(Nc4ccc(C(=O)NCCNC(=O)[C@@H]5CCNC[C@@H]5O)c(C)c4)nccn23)c(F)c1F [Example 459, (3R,4R)-N-[2-[[4-[[3-(2,3-difluoro-4-methoxy-phenyl)imidazo[1,2-a]pyrazin-8-yl]amino]-2-methyl-benzoyl]amino]ethyl]-3-hydroxy-piperidine-4-carboxamide; formic acid] |
| 0.54 | COc1ccc(-c2cnc3c(Nc4ccc(C(=O)NCC5OCC(N)CO5)c(C)c4)nccn23)cc1 (stereo not shown) [Example 206, N-[(5-amino-1,3-dioxan-2-yl)methyl]-4-[[3-(4-methoxyphenyl)imidazo[1,2-a]pyrazin-8-yl]amino]-2-methylbenzamide] |
| 0.5 | CCc1cc(Nc2nccn3c(-c4ccc(OC)c(F)c4F)cnc23)ccc1C(=O)N[C@@H](CC)CN [Example 489, N-[(1S)-1-(aminomethyl)propyl]-4-[[3-(2,3-difluoro-4-methoxy-phenyl)imidazo[1,2-a]pyrazin-8-yl]amino]-2-ethyl-benzamide; formic acid] |
| 0.36 | CCc1cc(Nc2nccn3c(-c4ccc(Oc5ccccn5)c(F)c4F)cnc23)ccc1C(=O)NCCCC(=O)N1CCN[C@H](CO)C1 [Example 476, 4-[[3-[2,3-difluoro-4-(2-pyridyloxy)phenyl]imidazo [1,2-a]pyrazin-8-yl]amino]-2-ethyl-N-[4-[(3S)-3-(hydroxymethyl)piperazin-1-yl]-4-oxo-butyl]benzamide] |
| 0.48 | CCc1cc(Nc2nccn3c(-c4ccc(OC)c(F)c4F)cnc23)ccc1C(=O)NCCNC(=O)C(CNC(=N)N)NC(=O)[C@@H](N)CCC(=O)O (mixture of isomers) [Example 461, (4S)-4-amino-5-((1-((2-(4-((3-(2,3-difluoro-4-methoxyphenyl)imidazo[1,2-a]pyrazin-8-yl)amino)-2-ethylbenzamido)ethyl)amino)-3-guanidino-1-oxopropan-2-yl)amino)-5-oxopentanoic acid trihydrochloride] |
| 4.6 | CCc1cc(Nc2nccn3c(-c4ccc(O)c(F)c4F)cnc23)ccc1C(=O)NCCCN [Example 289, N-(3-aminopropyl)-4-[[3-(2,3-difluoro-4-hydroxyphenyl)imidazo[1,2-a]pyrazin-8-yl]amino]-2-ethylbenzamide;hydrochloride] |
| 0.3 | CCc1cc(Nc2nccn3c(-c4ccc(OC)c(F)c4F)cnc23)ccc1C(=O)N[C@H](C)CNC(=O)[C@@H](N)CCCCN [Example 465, N-[(1R)-2-[[(2S)-2,6-diaminohexanoyl]amino]-1-methyl-ethyl]-4-[[3-(2,3-difluoro-4-methoxy-phenyl)imidazo[1,2-a]pyrazin-8-yl]amino]-2-ethyl-benzamide] |
| 0.53 | CCc1cc(Nc2nccn3c(-c4ccc(Oc5ccc(OC)cn5)c(F)c4F)cnc23)ccc1C(=O)NCCNC(=O)[C@@H](N)CCNC(=N)N [Example 449, N-[2-[[(2S)-2-amino-4-guanidino-butanoyl]amino]ethyl]-4-[[3-[2,3-difluoro-4-[(5-methoxy-2-pyridyl)oxy]phenyl]imidazo [1,2-a]pyrazin-8-yl]amino]-2-ethyl-benzamide; formic acid] |

same assay, conditions: Acinetobacter baumannii, ATCC17978, 16 h, read-out: ATCC17978 IC90 [μM]

| SMILES | IC90 [µM] |
| --- | --- |
| CCOP(=O)(OCC)N1CCC(CCN(C)C(=O)c2ccc(Nc3nccn4c(-c5ccc(OC(F)F)cc5)cnc34)cc2C)CC1 [Example 115, N-[2-(1-diethoxyphosphoryl-4-piperidyl)ethyl]-4-[[3-[4-(difluoromethoxy)phenyl]imidazo[1,2-a]pyrazin-8-yl]amino]-N,2-dimethyl-benzamide] | 0.85 |

Reference: patent US20230012368A1 (Hoffmann-La Roche Inc., priority 2018, published 2023)
